Results: PubChem BioAssay (NCI)
“And” between values parts separate entries of the source, which are not always exact repeats. Equal entries are not always repeated.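 Test compounds were applied to cells in 96-well plates for 48 hours at 5 doses. GI50 is the concentration that inhibits growth by half. TGI: concentration producing complete growth inhibition.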

Legend:
Assay in all cases: growth of human tumour cells (NCI), 48 h
NCI-H226 lung = test system: NCI-H226 lung
TK-10 renal = test system: TK-10 renal
SR leukemia = test system: SR leukemia
KM12 colon = test system: KM12 colon
NCI-H460 lung = test system: NCI-H460 lung
IGROV1 ovarian = test system: IGROV1 ovarian
HOP-62 NSCLC = test system: HOP-62 NSCLC
SN12C renal = test system: SN12C renal
LOX IMVI melanoma = test system: LOX IMVI melanoma

| SMILES | TGI (NCI-H226 lung) | TGI (TK-10 renal) | TGI (SR leukemia) [µM] | TGI (KM12 colon) | TGI (NCI-H460 lung) | TGI (IGROV1 ovarian) | TGI (HOP-62 NSCLC) | TGI (SN12C renal) | GI50 (NCI-H226 lung) | GI50 (IGROV1 ovarian) [µM] | GI50 (LOX IMVI melanoma) | TGI (LOX IMVI melanoma) [µM] | GI50 (SN12C renal) | GI50 (TK-10 renal) [µM] |
| --- | --- | --- | --- | --- | --- | --- | --- | --- | --- | --- | --- | --- | --- | --- |
| Cc1cc(C)c(-c2no/c(=N\S(=O)(=O)c3ccc(Cl)cc3)o2)c(C)c1 | > 100 µM | > 100 µM | 55 | > 100 µM | > 100 µM | > 100 µM | > 100 µM | > 100 µM |  |  |  |  |  |  |
| COc1cc(C2c3cc4c(cc3OC(NN)C2C)OCO4)cc(OC)c1O (configuration not stated) | 62 µM | 90.6 µM |  | 41.7 µM |  | > 100 µM |  | 62.2 µM |  |  |  |  |  |  |
| O=C(NCCC1CNc2ccccc21)OCc1ccccc1 (configuration not stated) |  |  | > 100 | > 100 µM | > 100 µM | > 100 µM | > 100 µM |  |  |  |  |  |  |  |
| CC1(C)O[C@@H]2[C@@H](COC(C)(C)O[C@H]2C2SCCCS2)O1 |  |  |  | > 100 µM | > 100 µM |  | > 100 µM | > 100 µM |  |  |  |  |  |  |
| O=[N+]([O-])c1cccc2nc3ccccc3c(NCCCCCNc3c4ccccc4nc4cccc([N+](=O)[O-])c34)c12 | 0.562 µM and 1.94 µM | 0.26 µM and 1.79 µM | 0.0202 | 0.249 µM and 0.029 µM | 0.164 µM | 0.506 µM and 1.2 µM |  | 0.0777 µM and 0.0827 µM | 0.0249 µM | 0.127 | 0.0746 µM |  |  |  |
| Cc1cc(N(CCC#N)CCC#N)ccc1/C(N=Nc1ccccc1)=N\NC(=O)c1cc(Cl)ccc1O | > 100 µM | 52.2 µM | 79.5 | > 100 µM | 57.5 µM | > 100 µM | > 100 µM | > 100 µM |  |  |  |  |  |  |
| CC(=O)NC1C(OCC(=O)NCCNc2ccc([N+](=O)[O-])c3[nH]c4ccccc4c(=O)c23)C(O)C(CO)OC1(C)OCc1ccccc1 (configuration not stated) | > 100 µM | > 100 µM |  | > 100 µM | > 100 µM | > 100 µM | > 100 µM | > 100 µM |  |  |  | > 100 |  |  |
| COC(=O)C1CCC(=O)N1CN(C(C)=O)c1cccc(O)c1 (configuration not stated) | > 100 µM | > 100 µM |  | > 100 µM | > 100 µM | > 100 µM | > 100 µM | > 100 µM |  |  |  | > 100 |  |  |
| COC(CN(C)C(=S)Nc1cccc2ccccc12)OC | > 10 µM | > 10 µM | > 10 | > 10 µM | > 10 µM | > 10 µM | > 10 µM | > 10 µM |  |  |  | > 10 |  |  |
| Cn1c2ccccc2c(=O)c2c(O)cc3c(c21)C1OCC(C)(O)C1O3 (configuration not stated) | 63.5 µM | > 100 µM | > 100 |  |  | 79.7 µM | > 100 µM | > 100 µM |  |  |  |  |  |  |
| C[C@@H](CC(=O)OCc1ccccc1)OC1OC(COC(=O)C(C)(C)C)C(OC(=O)C(C)(C)C)C(OC(=O)C(C)(C)C)C1OC(=O)C(C)(C)C (some centres not stated) | > 100 µM | > 100 µM | > 100 | > 100 µM | > 100 µM | > 100 µM | > 100 µM | > 100 µM |  |  |  | > 100 |  |  |
| COC(=O)/C=C/c1ccc(OP(=O)(O)O)c(OC)c1 | > 100 µM | > 100 µM | > 100 | > 100 µM | > 100 µM | > 100 µM | > 100 µM | > 100 µM |  |  |  | > 100 |  |  |
| CC(C)C(Cl)CCC(C)(Cl)C(=O)CBr (configuration not stated) | 44.5 µM | 13.7 µM |  | 29.8 µM | 33.4 µM | 16.9 µM | 19.6 µM | 29.4 µM |  |  |  | 2.36 |  |  |
| NC1=NC2(COC(c3ccccc3)(c3ccccc3)c3ccccc3)OC(COC(c3ccccc3)(c3ccccc3)c3ccccc3)C(O)C2O1 (configuration not stated) | > 100 µM | > 100 µM | > 100 | > 100 µM |  | > 100 µM | > 100 µM | > 100 µM |  |  |  | > 100 |  |  |
| COc1cc([C@@H]2c3cc4c(cc3[C@@H](Nc3ccc(NC(=O)c5cc([N+](=O)[O-])cn5C)cc3)[C@H]3COC(=O)[C@H]23)OCO4)cc(OC)c1O | 0.29 µM | 6.15 µM and 2.95 µM |  |  | 0.174 µM and 0.0745 µM |  | 0.174 µM and 0.127 µM | 0.262 µM and 0.437 µM | 0.179 µM and 0.0249 µM |  | 0.111 µM and 0.0268 µM |  | 0.0231 µM and 0.055 µM |  |
| O=c1c(-c2ccccc2)nnc2n(Cc3ccccc3)c3ccccc3n12 | > 100 µM | > 100 µM | > 100 | > 100 µM | > 100 µM | > 100 µM |  | > 100 µM |  |  |  | > 100 |  |  |
| S=C1Cc2c(-c3ccccc3)cc(-c3cccc(Cl)c3)nc2-c2ccccc2N1 | 19.4 µM | 1.9 µM | 46.9 | > 100 µM | 7.11 µM | 4.56 µM | 6.48 µM | 16.7 µM |  |  |  | 13.7 |  | 0.436 |
| Cc1ccc(S[C@@](C=O)(NC(=O)OCc2ccccc2)C(F)(F)F)cc1 | 40.2 µM |  | 44.4 | 52.8 µM | 79.3 µM | 54.3 µM | 88.3 µM | 91.7 µM |  |  |  | 48.8 |  |  |
| COc1ccc(CCCCNCc2cccc(CNCCCCc3ccc(OC)cc3)c2)cc1 | 2.33 µM | 5.02 µM | > 100 | 3.69 µM | > 19.7 µM | 3.32 µM | 4.99 µM | 3.64 µM |  |  |  | 3.23 |  |  |
| COC1(OC)CCc2c(sc3ncnc(Nc4cccc(Br)c4)c23)C1 | > 100 µM | > 100 µM | > 100 | > 100 µM | > 100 µM | > 100 µM | > 100 µM | > 100 µM |  |  |  | > 100 |  |  |
| NNc1nnc(CCCCCCCCc2nnc(NN)n2N)n1N | > 100 µM | > 100 µM |  | > 100 µM | > 100 µM | > 100 µM | > 100 µM | > 100 µM |  |  |  | > 100 |  |  |
| CC(N)(CC(O)(C(F)(F)Cl)C(F)(F)Cl)C(=O)O (configuration not stated) | > 10 µM | > 10 µM | > 10 | > 10 µM | > 10 µM | > 10 µM | > 10 µM | > 10 µM |  |  |  | > 10 |  |  |
| COC(=O)[C@@H]1[C@@H]2NC(=S)N[C@@]1(C)Oc1ccccc12 | > 100 µM | > 100 µM | > 100 | > 100 µM | > 100 µM | > 100 µM | > 100 µM | > 100 µM |  |  |  | > 100 |  |  |
| CCCCCCCCCCCCCCCCCCNc1ccn(C2OC(COP(=O)(O)OCC3OC(n4ccc(N)nc4=O)C(O)C3O)C(O)C2O)c(=O)n1 (configuration not stated) | > 100 µM | > 100 µM | > 100 | > 100 µM | > 78.8 µM | > 100 µM | > 100 µM | > 100 µM |  |  |  | 49.4 |  |  |
